The test system of the assay is Mycobacterium tuberculosis H37Rv growth inhibition, no glycerol. In words: Mycobacterium tuberculosis H37Rv growth inhibition, no glycerol, confirmatory dose response (AID 449764).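 On all read-outs here: growth read after 7 days of incubation.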 The conditions noted are these: for IC90: measured here: IC90 growth inhibition.

Experimental findings from PubChem BioAssay AID449764 (Southern Research Specialized Biocontainment Screening …, 2010) are described below.

One may read the IC50 as the point on the concentration scale where inhibition reaches its midpoint. As usually defined, the IC90 is the concentration needed for an effect of 90%. A higher IC90 goes with a need for much substance. With `CSc1ccccc1OCc1cc(C(=O)N2CCC(Oc3cccnc3)CC2)no1`, the IC50 was 28.3 µM and the IC90 came out at 37.3 µM. The corresponding values for `COc1ccc(-c2nsc3c(N4CCCCC4C)ncnc23)cc1` (stereo unspecified) are 96.6 µM and greater than 100 µM.

For `CN1CCN(c2c(F)cc3c(=O)c(C(=O)O)cn4c3c2OCN4C)CC1`, the IC50 is 0.72 µM and the IC90 was 0.93 µM. The corresponding values for `CCc1cc(C(=O)Nc2nc(-c3ccccn3)cs2)sc1C` are 4.53 µM and 8.86 µM. In the case of `NC(=S)N=Nc1ccc(NN=C(N)N)cc1`, the concentration for half-maximal inhibition (IC50) was 19.3 µM and the IC90 worked out at 27.6 µM.

Turning to `Cc1cc2nc(C3CCN(CC4COc5ccccc5O4)CC3)[nH]c2cc1C` (stereo unspecified), the IC50 was 17.8 µM and the IC90 was 28.7 µM. In the same order, the values of `O=C(Nc1ccc(Cl)cc1)N(C1=NCCC1)c1ccc(OC(F)F)cc1` are 64.7 µM and greater than 100 µM. In the same order, the values of `c1ccc(Nc2nc(N3CCCCC3)nc(N3CCNCC3)n2)cc1` are 44.4 µM and 69.4 µM.

In the case of `Cc1c(CN(C)C)c2c(n1Cc1ccccc1)C(=O)c1ccc(Br)cc1-2`, the IC50 is 24 µM and the IC90 was 27.8 µM. In the same order, the values of `Cc1ccc(NC(=O)C2=C(O)CCn3c2nc2ccccc23)cc1` are 13.5 µM and greater than 100 µM. In the same order, the values of `CCOC(=O)c1c(C)[nH]c(N=Nc2ccc(OC)cc2)c1C` are 11.3 µM and greater than 25 µM. As for `O=C(CN1CCN(C(=O)COc2cccc(F)c2)CC1)Nc1ccc(Cl)c(C(F)(F)F)c1`, the IC50 was 50.4 µM and the IC90 worked out at 57.4 µM. In the same order, the values of `COc1ccccc1NC(=O)C(C)OC(=O)/C=C/c1ccc2ccccc2n1` (stereo unspecified) are 6.99 µM and 13.1 µM. The corresponding values for `Cc1ccc(CN2CCC(c3cc(-c4ccc(Cl)cc4)n[nH]3)CC2)cc1` are 11.7 µM and 18.2 µM.

With `COc1ccc(C[C@H]2CN3C(=NC[C@H]3Cc3ccccc3)N2CCNC(=O)CCC2CCCCC2)cc1`, the IC50 is 22.4 µM and the IC90 was 24.3 µM. With `C(=N\NC1=Nc2cccc3cccc1c23)/c1cccnc1`, the IC50 was 92.8 µM and the concentration for an effect of 90% (IC90) was greater than 100 µM. With `CC1(C)Cc2c(sc(NC(=O)c3ccc(C(=O)c4ccccc4)cc3)c2C(N)=O)C(C)(C)N1`, the concentration for half-maximal inhibition (IC50) was 22.9 µM and the concentration for an effect of 90% (IC90) was greater than 50 µM. As for `O=c1cc2[nH]c3ccccc3c(=O)n2nc1-c1ccccc1`, the IC50 is 10.4 µM and the concentration for an effect of 90% (IC90) worked out at 15 µM.

For the compound `COc1ccc(/C=N/Nc2cc(C)nc3ccc(OC)cc23)c(OC)c1`, the IC50 was 16.3 µM and the IC90 was 19.7 µM. Compound `CC(C(Sc1ccccc1N)c1ccccc1)[N+](=O)[O-]` (stereo unspecified) had a concentration for an effect of 90% (IC90) greater than 100 µM. Take `CCCC12CN3CC(CCC)(CN(C1)C3c1ccccn1)C2=O` (stereo unspecified): the IC50 is 9.71 µM and the IC90 was greater than 100 µM.

Consider `C=C1C(=O)O[C@@H]2C[C@@H](C)[C@@H]3C4OC4C(=O)[C@@]3(C)[C@@H](O)[C@H]12` (stereo partly specified), for which the IC50 was 10.5 µM and the IC90 worked out at 13 µM.

Turning to `O=C(c1ccc(-c2ccccc2)c(F)c1)C1CCCN(C(=O)c2cncs2)C1` (stereo unspecified), the half-maximal inhibitory concentration (IC50) is 32.5 µM and the IC90 was determined as 49.4 µM. In the same order, the values of `Cc1ccc(CNC(=O)c2sc3nc4c(c(C(F)(F)F)c3c2N)CCC4)cc1` are 46.3 µM and 50.9 µM. In the same order, the values of `CCN(Cc1ccccc1)c1ccc(/C=N/N=C(N)N)cc1` are 18.8 µM and 28.1 µM. In the same order, the values of `CCCCCC(=O)N/N=C(\C)c1ccccn1` are 29 µM and 38.9 µM.

For `CCCCN1C(=N)N([C@@H](CCC)CN2CCC[C@H]2CN2C(N)=NC[C@@H]2Cc2ccccc2)C[C@H]1Cc1ccccc1`, the IC50 was 23.9 µM and the IC90 stood at 27.6 µM.

With `Nc1ccc(-c2nc3nc(N)nc(N)c3nc2-c2ccc(N)cc2)cc1`, the IC50 was 48.8 µM and the IC90 was greater than 100 µM. In the same order, the values of `CSc1nsc(/C=C/Nc2ccc(O)cc2C)c1C#N` are 44.5 µM and 49.6 µM. In the same order, the values of `Cn1nc([N+](=O)[O-])nc1Sc1ccc(C(C)(C)C)cc1` are 8.88 µM and 17.1 µM.

On to `Cc1onc(-c2ccccc2Cl)c1C(=O)Oc1cccc2cccnc12`, for which the IC50 was 3.38 µM and the IC90 turned out to be 3.98 µM. In the same order, the values of `COc1ccc(OC)c(Nc2nc(-c3sc(C)nc3C)cs2)c1` are 70.1 µM and greater than 100 µM. `N/C(=N\NC(=O)c1sccc1OCc1ccc(Cl)cc1Cl)c1ccccn1`: the IC50 was 32.3 µM and the concentration for an effect of 90% (IC90) amounted to 39.4 µM.

`CCOC(=O)CSc1nc(C)c(C(=O)OCC)s1`: the IC50 is 9.22 µM and the IC90 came out at 16.2 µM. In the same order, the values of `CN1CCN(C2Cc3ccccc3Sc3cc(C(F)(F)F)ccc32)CC1` (stereo unspecified) are 14 µM and 17.4 µM.

In the case of `CC(Oc1ccc2ccccc2c1)C(=O)NNC(=S)NC(=O)c1ccco1` (stereo unspecified), the half-maximal inhibitory concentration (IC50) was 22.4 µM and the IC90 is 31.9 µM. On to `CCOC(=O)c1ccc(-n2c(CCC(=O)O)ccc2-c2cccs2)cc1`, for which the IC50 is 20.8 µM and the IC90 came out at 23.6 µM. In the same order, the values of `Cc1cccc(N(C(=O)c2nsc(Cl)c2Cl)C(C(=O)NC2CCCC2)c2ccc(O)cc2)c1C` (stereo unspecified) are 30.8 µM and 41 µM. In the same order, the values of `O=C(O)/C=C/C(=O)Nc1ccc(-c2ccccc2)cc1` are 94.1 µM and greater than 100 µM. In the same order, the values of `CCOC(=O)COc1ccc(/C=C2\NC(=S)N(CC)C2=O)cc1` are 3.1 µM and 3.44 µM. Turning to `Cn1nc(-c2ccccn2)nc2c(=O)n(C)c(=O)nc1-2`, the IC50 is 12.5 µM and the IC90 came out at 13 µM. The corresponding values for `CCOC(=O)COn1c2c(c3c4no[n+]([O-])c4ccc31)CCCC2` are 5.68 µM and 6.48 µM. The corresponding values for `CCOC(=O)c1ccccc1NC(=O)COc1coc(CN2CCc3ccccc32)cc1=O` are 27.1 µM and 47.8 µM. In the same order, the values of `O=c1c2c(-c3ccccc3)csc2ncn1/N=C/c1ccc(O)c([N+](=O)[O-])c1` are 37.1 µM and 59 µM.

For `CCOC(=O)c1c(CC(C)C)csc1NC(=O)CCl`, the IC50 was 2.66 µM and the IC90 was determined as 11.2 µM. Consider `Cc1nc(NC(=O)CC(C)C)sc1-c1csc(Nc2ccc(Cl)cc2Cl)n1`, for which the IC50 was 40.2 µM and the IC90 was found to be 83.7 µM. In the same order, the values of `COc1ccc(C(=O)c2c(C(F)(F)F)oc3c2C(=O)c2ccccc2C3=O)cc1OC` are 16.7 µM and 22.1 µM. The corresponding values for `CC1=NOC(=O)/C1=C/c1ccc(-c2ccc(Cl)cc2)o1` are 18.4 µM and greater than 100 µM. Regarding `COC(=O)C(C)Oc1ccc(Cc2ncc(C(F)(F)F)cc2Cl)cc1` (stereo unspecified), the IC50 is 3.43 µM and the IC90 worked out at 5.97 µM. As to `COc1ccc(-c2cn(Cc3ccc(C(=O)NCc4ccc(C)cc4)cc3)c(C(C)N)n2)cc1` (stereo unspecified), the IC50 was 66 µM and the IC90 came out at 82.4 µM. The corresponding values for `C=CCN(CC=C)C(=S)NC(=O)c1ccc(-c2ccccc2)cc1` are 13.6 µM and 22.4 µM.

Regarding `CC/C(=C(\c1ccc(O)cc1)c1ccc(OCCN(C)C)cc1)c1ccccc1`, the IC50 is 26.5 µM and the IC90 is 45 µM. In the same order, the values of `CN(Cc1ccc(Cl)s1)C(=O)CCl` are 1.54 µM and 1.73 µM.

Regarding `Cc1nc(N2CCN(c3ccccn3)CC2)c2c(C)c(C(=O)N3CCN(c4ccc(F)cc4)CC3)sc2n1`, the IC50 is 11.2 µM and the 90% effect concentration (IC90) was determined as 12.9 µM. For `CCOC(=O)c1cc(-c2csc(Nc3c(C)cc(C)cc3C)n2)on1`, the IC50 was 1.09 µM and the IC90 is 1.62 µM. The corresponding values for `CCCCCCOC(=O)C(C#N)c1nc2ccccc2nc1N1CCN(CC)CC1` (stereo unspecified) are 21.3 µM and 32.3 µM. The corresponding values for `O=C(Nc1cc(C(F)(F)F)ccc1Cl)C(Sc1cccc[n+]1[O-])c1ccccc1` (stereo unspecified) are 43.7 µM and 48.2 µM.

The compound `CCc1nc2ccccc2c(C(=O)Nc2cc(C)ccc2C)c1C` registered an IC90 greater than 100 µM. Consider `O=C(Nc1nnc(-c2ccccc2)o1)c1cc(-c2cccs2)nc2ccccc12`, for which the IC50 is 1.76 µM and the IC90 is 2.94 µM.

With `CCc1c(C)sc(NC(=S)N2CCN(CC)CC2)c1C(=O)OC`, the IC50 is 13.3 µM and the IC90 was greater than 25 µM. In the same order, the values of `CCOc1ccc(-c2csc(/C(C#N)=C\c3ccc(O)c([N+](=O)[O-])c3)n2)cc1` are 16.7 µM and greater than 100 µM. In the same order, the values of `COc1ccc(N(CC(=O)Nc2cc(Cl)ccc2C)S(=O)(=O)c2c(C)n[nH]c2C)cc1` are 40.5 µM and 52.7 µM.

As for `COC(=O)C1C(O)C(C)C(O)C(C)/C=C\C=C(/C)C(=O)Nc2c(C)c(OC(C)=O)c3c(c2O)C(=O)C(C)=C2OCOC(=C23)/C(C)=C/C(C)(O)C(O)C(C)C1O` (stereo unspecified), the IC50 was less than 0.2 µM and the IC90 was less than 0.2 µM. As for `COc1cccc(/C=N/Nc2ncnc3scc(-c4ccccc4)c23)c1O`, the IC50 is 5.65 µM and the IC90 was found to be 6.44 µM. The corresponding values for `Cc1cc(C(=O)N/N=C\C(Br)=C\c2ccccc2)c(C)o1` are 44.2 µM and 53.6 µM. In the same order, the values of `CCOc1ccc(/C=N/OCC(=O)Nc2cc(C)on2)cc1` are 90 µM and greater than 100 µM. The corresponding values for `CCCCS/C(N)=N/N=C/c1cc(C)ccc1O` are 22.7 µM and 34.1 µM. With `O=C1NN(c2ccc(Br)cc2)C(=O)/C1=C\c1ccc(O)cc1O`, the IC90 was greater than 100 µM.

As for `Cc1cc(C(=O)CCl)c(C)n1CCc1ccc(Cl)cc1`, the IC50 is 3.95 µM and the IC90 stood at 9.41 µM. The corresponding values for `CC(C)(C)CC(C)(C)c1ccc(OCCOCC[N+](C)(C)Cc2ccccc2)cc1` are 42.8 µM and 47.1 µM. In the same order, the values of `COc1cc(N)c(Cl)cc1C(=O)N[C@H]1CCN(CCCOc2ccc(F)cc2)C[C@H]1OC` are 48.7 µM and 89 µM. As to `Nc1nc(Cl)cc(N2CCC(c3cc(-c4ccc(Cl)cc4Cl)n[nH]3)CC2)n1`, the IC50 is 25.9 µM and the IC90 turned out to be 30.1 µM.
